For test [1], the target named is T1, SMARCA4-HiBiT HeLa cells (protein which is expressed from the SMARCA4 gene) (Homo sapiens, UniProt P51532).
T1 construct: protein which is expressed from the SMARCA2 and SMARCA4 genes; host or cells: HeLa (SMARCA4-HiBiT engineered line)
As to the kind of experiment: SMARCA4 degradation assay (HiBiT-fusion HeLa cell line, 24 h, luminescence). Format: cell-based. Summed up: (§1)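 HeLa cells carrying HiBiT-tagged SMARCA2 or SMARCA4 were seeded at 8,000 cells/well, allowed to attach overnight at 37° C., then given compounds in a 10-point dilution series (typically 10 μM to 300 pM) for 24 hours at 37° C. Remaining tagged protein was read by HiBiT lytic luminescence, and DC50s came from dose-response curves.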

The target of test [2] is T2, SMARCA2-HiBiT HeLa cells (protein which is expressed from the SMARCA2 gene) (Homo sapiens, UniProt P51531).
T2 construct: protein which is expressed from the SMARCA2 and SMARCA4 genes; host or cells: HeLa (SMARCA2-HiBiT engineered line)
As to the kind of experiment: SMARCA2 degradation assay (HiBiT-fusion HeLa cell line, 24 h, luminescence). Format: cell-based. The procedure, abridged: as §1

T1 sequence (P51532 whole entry): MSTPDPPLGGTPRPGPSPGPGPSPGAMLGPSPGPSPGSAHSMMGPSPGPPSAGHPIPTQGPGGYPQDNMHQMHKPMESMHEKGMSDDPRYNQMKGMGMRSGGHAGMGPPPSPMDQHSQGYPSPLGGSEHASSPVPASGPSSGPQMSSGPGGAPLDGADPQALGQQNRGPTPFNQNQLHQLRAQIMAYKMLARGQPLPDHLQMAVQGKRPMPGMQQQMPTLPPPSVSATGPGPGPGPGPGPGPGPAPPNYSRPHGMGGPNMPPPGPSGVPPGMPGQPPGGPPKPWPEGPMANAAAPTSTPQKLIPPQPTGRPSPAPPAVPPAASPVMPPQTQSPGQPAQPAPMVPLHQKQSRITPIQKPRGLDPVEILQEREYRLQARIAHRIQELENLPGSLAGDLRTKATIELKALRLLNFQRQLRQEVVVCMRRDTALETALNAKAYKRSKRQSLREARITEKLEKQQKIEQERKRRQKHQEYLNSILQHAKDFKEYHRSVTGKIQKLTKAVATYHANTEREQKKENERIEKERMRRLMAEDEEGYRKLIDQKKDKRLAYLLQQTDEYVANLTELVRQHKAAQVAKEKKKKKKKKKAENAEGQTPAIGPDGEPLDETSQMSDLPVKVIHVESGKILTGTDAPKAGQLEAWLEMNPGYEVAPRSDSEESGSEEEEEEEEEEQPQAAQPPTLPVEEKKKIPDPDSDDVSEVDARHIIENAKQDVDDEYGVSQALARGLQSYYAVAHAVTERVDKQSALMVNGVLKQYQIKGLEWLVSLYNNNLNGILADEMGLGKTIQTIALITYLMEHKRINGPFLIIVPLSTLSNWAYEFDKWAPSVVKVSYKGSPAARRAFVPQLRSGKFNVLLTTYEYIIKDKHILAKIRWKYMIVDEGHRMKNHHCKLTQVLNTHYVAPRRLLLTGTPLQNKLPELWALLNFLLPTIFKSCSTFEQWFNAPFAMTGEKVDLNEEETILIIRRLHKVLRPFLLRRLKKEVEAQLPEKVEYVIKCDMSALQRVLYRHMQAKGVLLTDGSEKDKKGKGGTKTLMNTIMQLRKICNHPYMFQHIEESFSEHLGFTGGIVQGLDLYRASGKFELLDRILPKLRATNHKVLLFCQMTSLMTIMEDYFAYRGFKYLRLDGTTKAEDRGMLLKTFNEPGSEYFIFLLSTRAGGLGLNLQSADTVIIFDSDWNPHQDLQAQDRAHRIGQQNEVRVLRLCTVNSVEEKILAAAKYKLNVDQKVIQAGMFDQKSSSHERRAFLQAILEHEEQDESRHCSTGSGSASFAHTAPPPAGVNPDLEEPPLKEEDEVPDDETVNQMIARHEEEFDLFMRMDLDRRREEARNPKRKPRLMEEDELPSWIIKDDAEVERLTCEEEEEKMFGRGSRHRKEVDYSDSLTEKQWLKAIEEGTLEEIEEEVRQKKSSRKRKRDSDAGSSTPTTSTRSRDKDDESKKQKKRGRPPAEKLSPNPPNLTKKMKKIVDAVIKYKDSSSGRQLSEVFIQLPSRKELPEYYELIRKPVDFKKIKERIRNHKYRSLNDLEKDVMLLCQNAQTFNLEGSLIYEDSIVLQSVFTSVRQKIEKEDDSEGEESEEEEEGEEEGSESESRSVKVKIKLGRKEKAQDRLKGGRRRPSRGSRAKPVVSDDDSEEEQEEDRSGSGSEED
T2 sequence (P51531 whole entry): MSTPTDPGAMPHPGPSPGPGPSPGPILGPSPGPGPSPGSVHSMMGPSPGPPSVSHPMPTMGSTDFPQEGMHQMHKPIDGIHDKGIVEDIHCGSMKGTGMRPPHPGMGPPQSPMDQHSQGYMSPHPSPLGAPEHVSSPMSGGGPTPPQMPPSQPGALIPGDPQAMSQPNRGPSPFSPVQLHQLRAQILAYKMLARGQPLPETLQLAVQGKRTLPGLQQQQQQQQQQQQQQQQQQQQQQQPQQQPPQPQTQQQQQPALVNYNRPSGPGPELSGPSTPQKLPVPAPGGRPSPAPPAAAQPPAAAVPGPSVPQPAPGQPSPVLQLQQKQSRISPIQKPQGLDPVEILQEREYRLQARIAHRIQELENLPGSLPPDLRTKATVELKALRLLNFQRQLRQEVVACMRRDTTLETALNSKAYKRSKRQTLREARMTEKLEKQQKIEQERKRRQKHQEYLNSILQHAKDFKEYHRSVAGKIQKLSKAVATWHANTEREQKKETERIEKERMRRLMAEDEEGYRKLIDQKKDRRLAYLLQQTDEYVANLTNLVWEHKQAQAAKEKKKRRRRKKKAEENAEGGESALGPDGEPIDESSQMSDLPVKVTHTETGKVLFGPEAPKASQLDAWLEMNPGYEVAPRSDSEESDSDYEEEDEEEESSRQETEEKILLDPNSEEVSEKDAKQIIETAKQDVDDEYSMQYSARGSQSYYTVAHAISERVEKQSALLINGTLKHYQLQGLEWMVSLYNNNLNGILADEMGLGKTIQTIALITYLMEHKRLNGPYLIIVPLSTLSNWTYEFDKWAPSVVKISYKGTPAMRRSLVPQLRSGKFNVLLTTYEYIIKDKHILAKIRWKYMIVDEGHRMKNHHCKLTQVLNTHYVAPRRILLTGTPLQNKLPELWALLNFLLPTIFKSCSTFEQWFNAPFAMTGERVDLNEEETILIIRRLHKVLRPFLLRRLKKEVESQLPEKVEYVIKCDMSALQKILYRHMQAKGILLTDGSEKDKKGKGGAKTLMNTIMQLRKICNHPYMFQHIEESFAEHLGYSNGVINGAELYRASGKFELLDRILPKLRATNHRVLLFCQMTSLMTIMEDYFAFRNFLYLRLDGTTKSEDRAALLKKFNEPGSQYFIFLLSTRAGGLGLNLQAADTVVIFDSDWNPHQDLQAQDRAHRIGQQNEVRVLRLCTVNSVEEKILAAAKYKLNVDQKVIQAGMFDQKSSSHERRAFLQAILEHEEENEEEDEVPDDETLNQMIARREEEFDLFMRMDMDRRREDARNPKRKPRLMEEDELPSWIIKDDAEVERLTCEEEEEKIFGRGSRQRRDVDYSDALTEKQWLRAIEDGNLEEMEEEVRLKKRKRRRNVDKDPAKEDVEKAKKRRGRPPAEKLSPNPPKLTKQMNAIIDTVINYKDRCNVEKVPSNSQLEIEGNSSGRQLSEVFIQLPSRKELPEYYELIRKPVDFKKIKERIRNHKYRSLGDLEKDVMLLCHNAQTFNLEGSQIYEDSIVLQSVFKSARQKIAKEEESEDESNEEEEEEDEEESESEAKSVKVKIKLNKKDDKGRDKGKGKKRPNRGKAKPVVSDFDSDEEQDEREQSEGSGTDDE

On to `C[C@@H]1CCN(c2cc(-c3ccccc3O)nnc2N)CCN1c1ccc(C#N)c(C#CCN2CC(F)(F)[C@H]2C)n1` [Compound P-413, 6-{(R)-4-[3-amino-6-(o-hydroxyphenyl)-4-pyridazinyl]-7-methyl-1,4-diazepan-1-y1}-2-{3-[(R)-3,3-difluoro-2-methyl-1-azetidinyl]-1-propynyl} nicotinonitrile], for which the DC50 in test [1] is above 5000 nM; in test [2] it was 50 to 500 nM. Further, the “SMARCA2 % Degradation @ 1 μM” value in test [2] (1 μM) was “++ (++=30-70%)”.
On to `CNCC#Cc1nccc(N2CCCN(c3cc(-c4ccccc4O)nnc3N)CC2)n1` [Compound P-147, 2-(6-amino-5-(4-(2-(3-(methylamino)prop-1-yn-1-yl)pyrimidin-4-yl)-1,4-diazepan-1-yl)pyridazin-3-yl)phenol], for which the half-maximal degradation concentration (DC50) in test [1] and in test [2] was 50 to 500 nM each time. The same molecule gave an inhibition at 1 µM in test [1] (@ 1 μM) of 30 to 70%. The “SMARCA2 % Degradation @ 1 μM” value in test [2] (@ 1 μM) is “++ (++=30-70%)”.
Take `C[C@@H]1CCN(c2cc(-c3ccccc3O)nnc2N)CCN1c1ccnc(C#CC2CN(CC(F)(F)F)C2)n1` [Compound P-173, o-{5-[(R)-5-methyl-4-(2-{2-[1-(2,2,2-trifluoroethyl)-3-azetidinyl]ethynyl}-4-pyrimidinyl)-1,4-diazepan-1-y1]-6-amino-3-pyridazinyl}phenol]: the DC50 in test [1] was 50 to 500 nM; in test [2] it was below 50 nM. This molecule showed an inhibition at 1 µM in test [1] (@ 1 μM) of 30 to 70%. In test [2] (@ 1 μM), the “SMARCA2 % Degradation @ 1 μM” value was “+++ (+++=>70%)”.
The corresponding values for `C[C@@H]1CCN(c2cc(-c3ccccc3O)nnc2N)CCN1c1ccnc(C#CCN2CC3CC2C3)n1` [Compound P-234, o-{5-[(R)-4-(2-{3-(2-azabicyclo[2.1.1]hex-2-yl)-1-propynyl}-4-pyrimidinyl)-5-methyl-1,4-diazepan-1-yl]-6-amino-3-pyridazinyl}phenol] are below 50 nM, below 50 nM, 30 to 70% and “+++ (+++=>70%)”.
For `Nc1nnc(-c2ccccc2O)cc1N1CCN(c2ccnc(C#CCNC(=O)c3ccncc3)n2)CC1` [Compound P-56, N-(3-(4-(4-(3-amino-6-(2-hydroxyphenyl)pyridazin-4-yl)piperazin-1-yl)pyrimidin-2-yl)prop-2-yn-1-yl)isonicotinamide] the same measures were 50 to 500 nM, 50 to 500 nM, 30 to 70% and “++ (++=30-70%)”.
In the case of `N#Cc1ccc(N2C3CCC2CN(c2cnnc(-c4ccccc4O)c2)C3)nc1C#CCN1CC(F)(F)C1` [Compound P-403, 2-[3-(3,3-difluoro-1-azetidinyl)-1-propynyl]-6-{3-[6-(o-hydroxyphenyl)-4-pyridazinyl]-3,8-diazabicyclo[3.2.1]oct-8-yl} nicotinonitrile], the 50% degradation concentration (DC50) in test [1] was above 5000 nM; in test [2] it was 500 to 5000 nM.
In the case of `CNCC#Cc1nccc(N2CCN(c3cc(-c4ccccc4O)nnc3N)CC2)n1` [Compound P-294, 0-[6-amino-5-(4-{2-[3-(methylamino)-1-propynyl]-4-pyrimidinyl}-1-piperazinyl)-3-pyridazinyl]phenol], the half-maximal degradation concentration (DC50) in test [1] and in test [2] was below 50 nM in each case. In test [1] (@ 1 μM), this molecule yielded an inhibition at 1 µM below 30%. For the same molecule, the “SMARCA2 % Degradation @ 1 μM” value in test [2] (@ 1 μM) is reported as “++ (++=30-70%)”.
On to `Cc1nn2ccn(CC#Cc3nccc(N4CCN(c5cc(-c6ccccc6O)nnc5N)CC4)n3)c(=O)c2c1C` [Compound P-281, 5-[3-(4-{4-[3-amino-6-(o-hydroxyphenyl)-4-pyridazinyl]-1-piperazinyl}-2-pyrimidinyl)-2-propynyl]-2,3-dimethyl-1,5,7a-triaza-4(5H)-indenone], for which the 50% degradation concentration (DC50) in test [1] and in test [2] was below 50 nM throughout. This molecule also came in with an inhibition at 1 µM in test [1] (@ 1 μM) of 30 to 70%. In addition, the “SMARCA2 % Degradation @ 1 μM” value in test [2] (@ 1 μM) is “++ (++=30-70%)”.
For `Nc1nnc(-c2ccccc2O)cc1N1CCN(c2ccnc(C#CCNC(=O)c3cccnn3)n2)CC1` [Compound P-5, N-[3-(4-{4-[3-amino-6-(2-hydroxyphenyl)pyridazin-4-yl]piperazin-1-yl}pyrimidin-2-yl)prop-2-yn-1-yl]pyridazine-3-carboxamide], the DC50 in test [1] and in test [2] was 50 to 500 nM each time. This molecule returned an inhibition at 1 µM in test [1] (@ 1 μM) below 30%. The “SMARCA2 % Degradation @ 1 μM” value in test [2] (@ 1 μM) is “++ (++=30-70%)”.
`C[C@H]1CN(c2ccnc(C#CCn3cccn3)n2)CCN1c1cc(-c2ccccc2O)nnc1N` [Compound P-329, 0-{5-[(S)-2-methyl-4-{2-[3-(1-pyrazolyl)-1-propynyl]-4-pyrimidinyl}-1-piperazinyl]-6-amino-3-pyridazinyl} phenol]: the 50% degradation concentration (DC50) in test [1] and in test [2] was 50 to 500 nM in each case. Also, in test [1] (@ 1 μM), the inhibition at 1 µM was below 30%. The “SMARCA2 % Degradation @ 1 μM” value in test [2] (@ 1 μM) is “++ (++=30-70%)”.
With `Nc1nnc(-c2ccccc2O)cc1N1CC2CCC(C1)N2c1ccnc(C#CCNC(=O)c2cccnc2)n1` [Compound P-241, N-[3-(4-{3-[3-amino-6-(o-hydroxyphenyl)-4-pyridazinyl]-3,8-diazabicyclo[3.2.1]oct-8-yl}-2-pyrimidinyl)-2-propynyl]nicotinamide], the DC50 in test [1] and in test [2] was 50 to 500 nM each time. Also, the inhibition at 1 µM in test [1] (@ 1 μM) was in the range of 30 to 70%. For the same molecule, the “SMARCA2 % Degradation @ 1 μM” value in test [2] (@ 1 μM) is on record as “++ (++=30-70%)”.
Consider `Nc1nnc(-c2ccccc2O)cc1N1CC2CC(C1)N2c1ccnc(C#CCn2cncn2)n1` [Compound P-205, o-[6-amino-5-(6-{2-[3-(1H-1,2,4-triazol-1-yl)-1-propynyl]-4-pyrimidinyl}-3,6-diazabicyclo[3.1.1]hept-3-yl)-3-pyridazinyl]phenol], for which the DC50 in test [1] was 500 to 5000 nM; in test [2], above 5000 nM. The molecule also yielded an inhibition at 1 µM in test [1] (@ 1 μM) of 30 to 70%.
For the molecule `Cn1ccc(NCC#Cc2nccc(N3CC4CCC(C3)N4c3cc(-c4ccccc4O)nnc3N)n2)n1` [Compound P-130, 2-(6-amino-5-(3-(2-(3-((1-methyl-1H-pyrazol-3-yl)amino)prop-1-yn-1-yl)pyrimidin-4-yl)-3,8-diazabicyclo[3.2.1]octan-8-yl)pyridazin-3-yl)phenol], the half-maximal degradation concentration (DC50) in test [1] and in test [2] was 50 to 500 nM throughout. The molecule also came in with an inhibition at 1 µM in test [1] (@ 1 μM) of 30 to 70%. Besides, the “SMARCA2 % Degradation @ 1 μM” value in test [2] (@ 1 μM) is “+++ (+++=>70%)”.
As for `C[C@@H]1CCN(c2cc(-c3ccccc3O)nnc2N)CCN1c1nc(C#CCn2cncn2)ncc1F` [Compound P-214, o-{5-[(R)-4-{5-fluoro-2-[3-(1H-1,2,4-triazol-1-yl)-1-propynyl]-4-pyrimidinyl}-5-methyl-1,4-diazepan-1-yl]-6-amino-3-pyridazinyl}phenol], the DC50 in test [1] and in test [2] was 50 to 500 nM in each case. In test [1] (@ 1 μM), this molecule had an inhibition at 1 µM of 30 to 70%. For the same molecule, the “SMARCA2 % Degradation @ 1 μM” value in test [2] (@ 1 μM) was “++ (++=30-70%)”.
Consider `Nc1nnc(-c2ccccc2O)cc1N1C2CCC1CN(c1ccnc(C#CCn3cncn3)n1)C2` [Compound P-283, 0-[6-amino-5-(3-{2-[3-(1H-1,2,4-triazol-1-yl)-1-propynyl]-4-pyrimidinyl}-3,8-diazabicyclo[3.2.1]oct-8-yl)-3-pyridazinyl]phenol], for which the DC50 in test [1] and in test [2] was 50 to 500 nM throughout. This molecule returned an inhibition at 1 µM in test [1] (@ 1 μM) below 30%. In test [2] (@ 1 μM), the “SMARCA2 % Degradation @ 1 μM” value is listed as “++ (++=30-70%)”.
For the molecule `C[C@@H]1CCN(c2cc(-c3ccccc3O)nnc2N)CCN1c1ccnc(C#CC2CCCO2)n1` (stereo partly drawn) [Compound P-211, o-{5-[(R)-5-methyl-4-{2-[2-(tetrahydro-2-furyl)ethynyl]-4-pyrimidinyl}-1,4-diazepan-1-yl]-6-amino-3-pyridaziny1} phenol], the DC50 in test [1] lay in the range of 500 to 5000 nM; in test [2], 50 to 500 nM. Moreover, in test [1] (@ 1 μM), the inhibition at 1 µM is below 30%. For the same molecule, in test [2] (@ 1 μM), the “SMARCA2 % Degradation @ 1 μM” value was “++ (++=30-70%)”.
Regarding `C[C@@H]1CCN(c2cc(-c3ccccc3O)nnc2N)CCN1c1ccnc(/C=C/CO)n1` [Compound P-168, o-(5-{(R)-4-[2-(3-hydroxy-1-propenyl)-4-pyrimidinyl]-5-methyl-1,4-diazepan-1-y1}-6-amino-3-pyridazinyl)phenol], the DC50 in test [1] and in test [2] was 50 to 500 nM in each case. In test [1] (@ 1 μM), this molecule displayed an inhibition at 1 µM above 70%. For the same molecule, in test [2] (@ 1 μM), the “SMARCA2 % Degradation @ 1 μM” value was “+++ (+++=>70%)”.
For the molecule `C[C@@H]1CCN(c2cc(-c3ccccc3O)nnc2N)CCN1c1ccnc(C#CCn2cncn2)c1` [Compound P-424, 0-{5-[(R)-5-methyl-4-{2-[3-(1H-1,2,4-triazol-1-yl)-1-propynyl]-4-pyridyl}-1,4-diazepan-1-yl]-6-amino-3-pyridaziny1} phenol], the half-maximal degradation concentration (DC50) in test [1] and in test [2] was 50 to 500 nM each time. Besides, the inhibition at 1 µM in test [1] (1 μM) fell in the range of 30 to 70%. Moreover, the “SMARCA2 % Degradation @ 1 μM” value in test [2] (1 μM) is on record as “+++ (+++=>70%)”.
In the case of `C[C@@H]1CCN(c2cc(-c3ccccc3O)nnc2N)CCN1c1ccnc(C#CCN2[C@H](C)C[C@H]2C)n1` [Compound P-264, o-{5-[(R)-4-(2-{3-[(2R,4R)-2,4-dimethyl-1-azetidinyl]-1-propynyl}-4-pyrimidinyl)-5-methyl-1,4-diazepan-1-yl]-6-amino-3-pyridazinyl}phenol], the half-maximal degradation concentration (DC50) in test [1] and in test [2] was below 50 nM throughout. Besides, in test [1] (@ 1 μM), the inhibition at 1 µM was in the range of 30 to 70%. Besides, the “SMARCA2 % Degradation @ 1 μM” value in test [2] (@ 1 μM) is recorded as “++ (++=30-70%)”.
Consider `N#CCNCC#Cc1nccc(N2CCCN(c3cc(-c4ccccc4O)nnc3N)CC2)n1` [Compound P-255, [3-(4-{4-[3-amino-6-(o-hydroxyphenyl)-4-pyridaziny1]-1,4-diazepan-1-yl}-2-pyrimidinyl)-2-propynylamino]acetonitrile], for which the DC50 in test [1] and in test [2] was 50 to 500 nM throughout. In addition, the inhibition at 1 µM in test [1] (@ 1 μM) is 30 to 70%. The “SMARCA2 % Degradation @ 1 μM” value in test [2] (@ 1 μM) was “++ (++=30-70%)”.
